Results on 5 molecules are retold here after ChEMBL document CHEMBL2074209, “Coinduction of MDR-1 multidrug-resistance and cytochrome P-450 genes in rat liver by xenobiotics” (J Natl Cancer Inst, 1988).

Multidrug resistance protein 1a (Rattus norvegicus), sequence (Q6PSM0 as listed by the source): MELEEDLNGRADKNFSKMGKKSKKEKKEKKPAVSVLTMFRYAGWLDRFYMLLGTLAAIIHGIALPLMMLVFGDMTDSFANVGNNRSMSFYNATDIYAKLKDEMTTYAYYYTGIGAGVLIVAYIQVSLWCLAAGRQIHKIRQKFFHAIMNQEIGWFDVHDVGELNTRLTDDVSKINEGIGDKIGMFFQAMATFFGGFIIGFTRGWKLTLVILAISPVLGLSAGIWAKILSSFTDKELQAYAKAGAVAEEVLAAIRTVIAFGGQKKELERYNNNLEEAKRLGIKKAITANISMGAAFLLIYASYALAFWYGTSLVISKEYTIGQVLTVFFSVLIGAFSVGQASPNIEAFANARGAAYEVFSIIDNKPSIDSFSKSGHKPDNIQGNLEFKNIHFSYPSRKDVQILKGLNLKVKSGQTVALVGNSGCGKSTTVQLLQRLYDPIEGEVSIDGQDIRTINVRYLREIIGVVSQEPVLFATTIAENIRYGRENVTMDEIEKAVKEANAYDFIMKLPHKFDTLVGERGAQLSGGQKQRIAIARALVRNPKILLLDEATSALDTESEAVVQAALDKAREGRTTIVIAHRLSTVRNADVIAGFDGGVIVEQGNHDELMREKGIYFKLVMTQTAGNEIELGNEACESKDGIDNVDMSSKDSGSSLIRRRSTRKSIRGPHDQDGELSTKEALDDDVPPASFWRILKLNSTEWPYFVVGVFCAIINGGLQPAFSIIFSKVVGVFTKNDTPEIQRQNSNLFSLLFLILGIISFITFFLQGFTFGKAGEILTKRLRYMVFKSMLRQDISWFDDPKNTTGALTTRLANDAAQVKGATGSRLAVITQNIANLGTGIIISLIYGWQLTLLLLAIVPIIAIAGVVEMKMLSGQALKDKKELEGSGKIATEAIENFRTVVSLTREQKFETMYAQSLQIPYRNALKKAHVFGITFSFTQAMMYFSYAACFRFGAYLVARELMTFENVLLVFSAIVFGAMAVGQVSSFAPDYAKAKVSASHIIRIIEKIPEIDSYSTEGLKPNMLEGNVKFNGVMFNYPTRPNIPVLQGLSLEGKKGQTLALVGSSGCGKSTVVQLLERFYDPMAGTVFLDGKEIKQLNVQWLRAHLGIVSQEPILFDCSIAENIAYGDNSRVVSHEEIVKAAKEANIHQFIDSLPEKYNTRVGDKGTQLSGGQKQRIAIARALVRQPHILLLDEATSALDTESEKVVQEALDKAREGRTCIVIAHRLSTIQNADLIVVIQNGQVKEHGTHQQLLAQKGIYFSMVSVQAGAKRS

This test concerns the target Multidrug resistance protein 1a (Rattus norvegicus) (UniProt Q6PSM0). Nature of the test: TP_TRANSPORTER: Northern blot in vivo Fischer male rat. Format: functional, organism-based.
Turning to `COc1cc2c(c3oc(=O)c4c(c13)CCC4=O)[C@@H]1C=CO[C@@H]1O2`, the Activity entry was “inducer [+]”.
Consider `Clc1cc2c(cc1Cl)Oc1cc(Cl)c(Cl)cc1O2`, for which the Activity result was “inducer [+]”.
Turning to `CC(=O)N(O)c1ccc2c(c1)Cc1ccccc1-2`, the Activity entry was “inducer [+]”.
In the case of `C/C=C/c1ccc2c(c1)OCO2` it was “inducer [+]”.
The same measure for `c1ccc2c(c1)Nc1ccccc1S2`: “inducer [+]”.
